Measured values as given in patent publication US10758534B2 (Vertex Pharmaceuticals Incorporated, priority 2014, dated 2020).
One block for each compound: values may come before it.

Target: T1, F508del (Homo sapiens, UniProt P13569, DEL508-508)
T1 construct: expressed in transfected cells
Assay: Protocol 2: FRET membrane potential optical assay (VIPR), identification of correction compounds
Type: cell-based
Conditions: F508del CFTR modulator activity; compounds of Table 1; read-out: EC30
Outline: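 FRET read-out (CC2-DMPE donor, DiSBAC2(3) voltage-sensitive acceptor) of membrane depolarization on VIPR II. Corrector candidates incubated 16 hrs at 37° C. with NIH3T3 cells expressing F508del; temperature correction at 27° C. as positive control; stimulation by 10 μM forskolin, 20 μM genistein, chloride-free gluconate bath.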

T1 sequence (P13569 with tags, fused parts or gaps DEL508-508): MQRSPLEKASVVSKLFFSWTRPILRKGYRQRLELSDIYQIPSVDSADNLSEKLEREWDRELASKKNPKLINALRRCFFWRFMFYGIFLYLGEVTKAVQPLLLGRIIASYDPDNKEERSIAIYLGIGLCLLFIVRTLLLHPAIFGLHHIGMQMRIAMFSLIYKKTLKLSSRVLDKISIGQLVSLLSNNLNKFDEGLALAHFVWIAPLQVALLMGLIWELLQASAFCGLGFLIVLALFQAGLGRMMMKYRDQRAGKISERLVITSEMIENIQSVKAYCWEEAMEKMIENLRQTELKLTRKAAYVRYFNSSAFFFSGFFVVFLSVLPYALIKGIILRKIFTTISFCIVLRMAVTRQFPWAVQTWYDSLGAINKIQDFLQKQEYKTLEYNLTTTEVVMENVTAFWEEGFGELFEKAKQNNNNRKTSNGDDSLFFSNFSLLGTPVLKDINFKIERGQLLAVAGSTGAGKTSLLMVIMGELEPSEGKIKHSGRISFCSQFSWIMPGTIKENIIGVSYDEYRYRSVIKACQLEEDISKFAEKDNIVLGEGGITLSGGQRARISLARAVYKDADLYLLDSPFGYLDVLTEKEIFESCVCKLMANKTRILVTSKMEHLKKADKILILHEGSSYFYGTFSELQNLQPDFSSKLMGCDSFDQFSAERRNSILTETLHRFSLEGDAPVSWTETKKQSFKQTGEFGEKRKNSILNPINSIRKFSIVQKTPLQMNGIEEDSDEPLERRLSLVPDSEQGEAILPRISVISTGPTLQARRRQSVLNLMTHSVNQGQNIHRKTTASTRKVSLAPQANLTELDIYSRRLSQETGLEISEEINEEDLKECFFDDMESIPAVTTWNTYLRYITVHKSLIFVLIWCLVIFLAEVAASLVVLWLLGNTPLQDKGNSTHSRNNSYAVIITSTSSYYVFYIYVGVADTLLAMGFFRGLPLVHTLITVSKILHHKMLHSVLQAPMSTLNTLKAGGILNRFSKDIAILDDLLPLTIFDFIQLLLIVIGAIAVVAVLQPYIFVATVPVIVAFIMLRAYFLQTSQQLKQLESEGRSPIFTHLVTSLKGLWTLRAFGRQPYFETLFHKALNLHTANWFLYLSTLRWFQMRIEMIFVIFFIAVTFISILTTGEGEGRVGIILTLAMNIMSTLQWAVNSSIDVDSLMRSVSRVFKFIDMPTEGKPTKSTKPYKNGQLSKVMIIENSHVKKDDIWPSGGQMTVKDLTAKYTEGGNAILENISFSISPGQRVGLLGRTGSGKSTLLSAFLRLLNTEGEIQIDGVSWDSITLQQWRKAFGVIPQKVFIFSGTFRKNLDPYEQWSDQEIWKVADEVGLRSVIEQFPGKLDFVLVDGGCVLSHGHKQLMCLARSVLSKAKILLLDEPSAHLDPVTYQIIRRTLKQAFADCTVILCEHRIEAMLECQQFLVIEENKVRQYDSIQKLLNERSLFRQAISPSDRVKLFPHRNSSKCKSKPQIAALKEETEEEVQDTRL

SMILES: Cc1ccc(O)c(-c2ccc(C(=O)NS(=O)(=O)c3cccnc3N)c(N3C[C@@H](C)CC3(C)C)n2)c1 [Compound 2426, N-[(2-amino-3-pyridyl)sulfonyl]-6-(2-hydroxy-5-methyl-phenyl)-2-[(4S)-2,2,4-trimethylpyrrolidin-1-yl]pyridine-3-carboxamide]
EC30: < 3000 nM

SMILES: CC(C)COc1cc(F)cc(-c2ccc(C(=O)NS(=O)(=O)N3CC[C@@H](O)C3)c(N3C[C@@H](C)CC3(C)C)n2)c1 [Compound 2427, 6-(3-fluoro-5-isobutoxy-phenyl)-N-[(3R)-3-hydroxypyrrolidin-1-yl]sulfonyl-2-[(4S)-2,2,4-trimethylpyrrolidin-1-yl]pyridine-3-carboxamide]
EC30: < 3000 nM

SMILES: CC1CN(c2ncc(-c3cccc(Cl)c3)cc2C(=O)NS(=O)(=O)c2cccc(N)n2)C(C)(C)C1 (stereo not drawn) [Compound 2429, N-[(6-amino-2-pyridyl)sulfonyl]-5-(3-chlorophenyl)-2-(2,2,4-trimethylpyrrolidin-1-yl)pyridine-3-carboxamide]
EC30: < 3000 nM

SMILES: COc1cc(F)cc(-c2cnc(N3CC(C)CC3(C)C)c(C(=O)NS(=O)(=O)c3cccc(N)n3)c2)c1 (stereo not drawn) [Compound 2431, N-[(6-amino-2-pyridyl)sulfonyl]-5-(3-fluoro-5-methoxy-phenyl)-2-(2,2,4-trimethylpyrrolidin-1-yl)pyridine-3-carboxamide]
EC30: < 3000 nM

SMILES: C[C@@H]1CN(c2nc(-c3ccc(F)cc3)ccc2C(=O)NS(=O)(=O)c2cccnc2N)C(C)(C)C1 [Compound 2435, N-[(2-amino-3-pyridyl)sulfonyl]-6-(4-fluorophenyl)-2-[(4S)-2,2,4-trimethylpyrrolidin-1-yl]pyridine-3-carboxamide]
EC30: < 3000 nM

SMILES: COc1cccc(-c2ccc(C(=O)NS(=O)(=O)c3cccnc3N)c(N3C[C@@H](C)CC3(C)C)n2)c1OC [Compound 2436, N-[(2-amino-3-pyridyl)sulfonyl]-6-(2,3-dimethoxyphenyl)-2-[(4S)-2,2,4-trimethylpyrrolidin-1-yl]pyridine-3-carboxamide]
EC30: < 3000 nM

SMILES: C[C@@H]1CN(c2nc(-c3ccccc3C#N)ccc2C(=O)NS(=O)(=O)c2cccnc2N)C(C)(C)C1 [Compound 2437, N-[(2-amino-3-pyridyl)sulfonyl]-6-(2-cyanophenyl)-2-[(4S)-2,2,4-trimethylpyrrolidin-1-yl]pyridine-3-carboxamide]
EC30: < 3000 nM

SMILES: Cc1ccc(-c2ccc(C(=O)NS(=O)(=O)c3ccc[nH]c3=O)c(N3C[C@@H](C)CC3(C)C)n2)cc1 [Compound 2438, N-[(2-oxo-1H-pyridin-3-yl)sulfonyl]-6-(p-tolyl)-2-[(4S)-2,2,4-trimethylpyrrolidin-1-yl]pyridine-3-carboxamide]
EC30: < 3000 nM

SMILES: COc1cc(-c2ccc(C(=O)NS(=O)(=O)c3ccc[nH]c3=O)c(N3C[C@@H](C)CC3(C)C)n2)ccc1C [Compound 2440, 6-(3-methoxy-4-methyl-phenyl)-N-[(2-oxo-1H-pyridin-3-yl)sulfonyl]-2-[(4S)-2,2,4-trimethylpyrrolidin-1-yl]pyridine-3-carboxamide]
EC30: < 3000 nM

SMILES: COc1ncc(-c2ccc(C(=O)NS(=O)(=O)c3ccc[nH]c3=O)c(N3C[C@@H](C)CC3(C)C)n2)cc1F [Compound 2444, 6-(5-fluoro-6-methoxy-3-pyridyl)-N-[(2-oxo-1H-pyridin-3-yl)sulfonyl]-2-[(4S)-2,2,4-trimethylpyrrolidin-1-yl]pyridine-3-carboxamide]
EC30: 3000 to 10000 nM

SMILES: C[C@@H]1CN(c2nc(-c3ccccc3)ccc2C(=O)NS(=O)(=O)c2ccc[nH]c2=O)C(C)(C)C1 [Compound 2445, N-[(2-oxo-1H-pyridin-3-yl)sulfonyl]-6-phenyl-2-[(4S)-2,2,4-trimethylpyrrolidin-1-yl]pyridine-3-carboxamide]
EC30: < 3000 nM

SMILES: C[C@@H]1CN(c2nc(-c3cccc(F)c3O)ccc2C(=O)NS(=O)(=O)c2cccnc2N)C(C)(C)C1 [Compound 2446, N-[(2-amino-3-pyridyl)sulfonyl]-6-(3-fluoro-2-hydroxy-phenyl)-2-[(4S)-2,2,4-trimethylpyrrolidin-1-yl]pyridine-3-carboxamide]
EC30: < 3000 nM

SMILES: C[C@@H]1CN(c2nc(-c3ccc(F)cc3F)ccc2C(=O)NS(=O)(=O)c2cccnc2N)C(C)(C)C1 [Compound 2447, N-[(2-amino-3-pyridyl)sulfonyl]-6-(2,4-difluorophenyl)-2-[(4S)-2,2,4-trimethylpyrrolidin-1-yl]pyridine-3-carboxamide]
EC30: < 3000 nM

SMILES: CC(C)COc1ccccc1-c1ccc(C(=O)NS(=O)(=O)c2cccnc2N)c(N2C[C@@H](C)CC2(C)C)n1 [Compound 2448, N-[(2-amino-3-pyridyl)sulfonyl]-6-(2-isobutoxyphenyl)-2-[(4S)-2,2,4-trimethylpyrrolidin-1-yl]pyridine-3-carboxamide]
EC30: < 3000 nM

SMILES: COc1ccc(-c2ccc(C(=O)NS(=O)(=O)c3cccnc3N)c(N3C[C@@H](C)CC3(C)C)n2)c(C)c1C [Compound 2450, N-[(2-amino-3-pyridyl)sulfonyl]-6-(4-methoxy-2,3-dimethyl-phenyl)-2-[(4S)-2,2,4-trimethylpyrrolidin-1-yl]pyridine-3-carboxamide]
EC30: < 3000 nM

SMILES: Cc1cc(-c2ccc(C(=O)NS(=O)(=O)c3ccc[nH]c3=O)c(N3C[C@@H](C)CC3(C)C)n2)ccc1F [Compound 2456, 6-(4-fluoro-3-methyl-phenyl)-N-[(2-oxo-1H-pyridin-3-yl)sulfonyl]-2-[(4S)-2,2,4-trimethylpyrrolidin-1-yl]pyridine-3-carboxamide]
EC30: < 3000 nM

SMILES: COc1c(F)cc(-c2ccc(C(=O)NS(=O)(=O)c3cccnc3N)c(N3C[C@@H](C)CC3(C)C)n2)cc1F [Compound 2457, N-[(2-amino-3-pyridyl)sulfonyl]-6-(3,5-difluoro-4-methoxy-phenyl)-2-[(4S)-2,2,4-trimethylpyrrolidin-1-yl]pyridine-3-carboxamide]
EC30: < 3000 nM

SMILES: CC[C@H](C)COc1ccn(-c2ccc(C(=O)NS(=O)(=O)c3cccnc3N)c(N3C[C@@H](C)CC3(C)C)n2)n1 [Compound 2458, N-[(2-amino-3-pyridyl)sulfonyl]-6-[3-[(2S)-2-methylbutoxy]pyrazol-1-yl]-2-[(4S)-2,2,4-trimethylpyrrolidin-1-yl]pyridine-3-carboxamide]
EC30: < 3000 nM

Next, values leading:

EC30: < 3000 nM
SMILES: COc1ccc(COc2cccc(S(=O)(=O)NC(=O)c3cccnc3N3CC(C)CC3(C)C)n2)cc1 (stereo not drawn) [Compound 2428, N—[[6-[(4-methoxyphenyl)methoxy]-2-pyridyl]sulfonyl]-2-(2,2,4-trimethylpyrrolidin-1-yl)pyridine-3-carboxamide]

EC30: 3000 to 10000 nM
SMILES: COc1cccc(S(=O)(=O)NC(=O)c2cccnc2N2CC(C)CC2(C)C)n1 (stereo not drawn) [Compound 2430]

EC30: 3000 to 10000 nM
SMILES: CC(=O)Nc1cccc(Oc2cccc(S(=O)(=O)NC(=O)c3cccnc3N3CC(C)CC3(C)C)n2)c1 (stereo not drawn) [Compound 2433, N—[[6-(3-acetamidophenoxy)-2-pyridyl]sulfonyl]-2-(2,2,4-trimethylpyrrolidin-1-yl)pyridine-3-carboxamide]

EC30: < 3000 nM
SMILES: CC1CN(c2ncccc2C(=O)NS(=O)(=O)c2cccc(OCC3(C)CC3)n2)C(C)(C)C1 (stereo not drawn) [Compound 2434, N—[[6-[(1-methylcyclopropyl)methoxy]-2-pyridyl]sulfonyl]-2-(2,2,4-trimethylpyrrolidin-1-yl)pyridine-3-carboxamide]

EC30: < 3000 nM
SMILES: CC1CN(c2ncccc2C(=O)NS(=O)(=O)c2cccc(N[C@H]3CC[C@H](NC(=O)OC(C)(C)C)CC3)n2)C(C)(C)C1 (stereo partly drawn) [Compound 2439, tert-butyl N—[4-[[6-[[2-(2,2,4-trimethylpyrrolidin-1-yl)pyridine-3-carbonyl]sulfamoyl]-2-pyridyl]amino]cyclohexyl]carbamate]

EC30: 3000 to 10000 nM
SMILES: CC1CN(c2ncccc2C(=O)NS(=O)(=O)c2cccc(Oc3ccc(-n4ccnc4)cc3)n2)C(C)(C)C1 (stereo not drawn) [Compound 2441, N—[[6-(4-imidazol-1-ylphenoxy)-2-pyridyl]sulfonyl]-2-(2,2,4-trimethylpyrrolidin-1-yl)pyridine-3-carboxamide]

EC30: 3000 to 10000 nM
SMILES: COC(=O)C1CCN(c2cccc(S(=O)(=O)NC(=O)c3cccnc3N3CC(C)CC3(C)C)n2)CC1 (stereo not drawn) [Compound 2442, methyl 1-[6-[[2-(2,2,4-trimethylpyrrolidin-1-yl)pyridine-3-carbonyl]sulfamoyl]-2-pyridyl]piperidine-4-carboxylate]

EC30: < 3000 nM
SMILES: CC1CN(c2ncccc2C(=O)NS(=O)(=O)c2cccc(Oc3cccc(N(C)C)c3)n2)C(C)(C)C1 (stereo not drawn) [Compound 2443, N—[[6-[3-(dimethylamino)phenoxy]-2-pyridyl]sulfonyl]-2-(2,2,4-trimethylpyrrolidin-1-yl)pyridine-3-carboxamide]

EC30: < 3000 nM
SMILES: CC1CN(c2ncccc2C(=O)NS(=O)(=O)c2cccc(Nc3cnc4ccccc4c3)n2)C(C)(C)C1 (stereo not drawn) [Compound 2449, N—[[6-(3-quinolylamino)-2-pyridyl]sulfonyl]-2-(2,2,4-trimethylpyrrolidin-1-yl)pyridine-3-carboxamide]

EC30: < 3000 nM
SMILES: CC1CN(c2ncccc2C(=O)NS(=O)(=O)c2cccc(OCCC3CCNCC3)n2)C(C)(C)C1 (stereo not drawn) [Compound 2452, N—[[6-[2-(4-piperidyl)ethoxy]-2-pyridyl]sulfonyl]-2-(2,2,4-trimethylpyrrolidin-1-yl)pyridine-3-carboxamide]

EC30: < 3000 nM
SMILES: CC1CN(c2ncccc2C(=O)NS(=O)(=O)c2cccc(N3CCC(F)CC3)n2)C(C)(C)C1 (stereo not drawn) [Compound 2453, N—[[6-(4-fluoro-1-piperidyl)-2-pyridyl]sulfonyl]-2-(2,2,4-trimethylpyrrolidin-1-yl)pyridine-3-carboxamide]

EC30: 3000 to 10000 nM
SMILES: COc1ncccc1-c1ccc(C(=O)NS(=O)(=O)c2ccc[nH]c2=O)c(N2C[C@@H](C)CC2(C)C)n1 [Compound 2454, 6-(2-methoxy-3-pyridyl)-N-[(2-oxo-1H-pyridin-3-yl)sulfonyl]-2-[(4S)-2,2,4-trimethylpyrrolidin-1-yl]pyridine-3-carboxamide]
